Measurements: patent US4223038A, “Bicyclic β-lactam antibiotics” (Beecham Group Limited, priority 1977, dated 1980)
Where two headings read alike, the source gives them in different places.

Key:
β-lactamase, E. Coli JT4 [1] = biological target: T1, β-lactamase, E. Coli JT4 (Escherichia coli, UniProt P62593); test: β-Lactamase inhibition, automated chromagenic substrate assay; format: biochemical; conditions: read-out: concentration of compound for 50% inhibition of enzyme (converted)
T1 construct: preparation not described
Procedure: (§1) Method was automated hydroxyamine assay except for compounds marked + which were tested using the automated chromagenic substrate assay.
(§2) Results are presented as concentration of compounds in μg/ml for 50% inhibition of enzyme, except a percentage indicates amount of inhibition at maximum concentration of 20 μg/ml (50 μg/ml for asterisked figures).

[2] = biological target: T2, β-lactamase, Ent. Cloacae P99 (Enterobacter cloacae, UniProt P05364); test: as above; format: biochemical; conditions: for IC50: read-out: concentration of compound for 50% inhibition of enzyme (converted); for inhibition at 50 µg/mL: at 50 μg/ml (asterisked), read-out: amount of inhibition at maximum concentration
T2 construct: preparation not described
Procedure: as §1, §2

[3] = biological target: β-lactamase, Kleb aerog E70; test: as above; format: biochemical
Procedure: as §1, §2

[4] = biological target: T3, β-lactamase, Staph aureus Russel (Staphylococcus aureus, UniProt P00807); test: as above; format: biochemical; conditions: at 50 μg/ml (asterisked), read-out: amount of inhibition at maximum concentration
Procedure: as §1, §2

β-lactamase, Ps aerug A [5] = test: β-Lactamase inhibition, automated hydroxyamine assay; format: biochemical; conditions: for amount of inhibition at maximum concentration: at 20 μg/ml
Procedure: as §1, §2

β-lactamase, E. Coli JT4 [6] = biological target: T1, β-lactamase, E. Coli JT4; test: as above; format: biochemical; conditions: for inhibition at 20 µg/mL: read-out: amount of inhibition at maximum concentration; for IC50: maximum concentration 20 μg/ml, read-out: concentration of compound for 50% inhibition of enzyme (converted)
Procedure: as §1, §2

[7] = biological target: T2, β-lactamase, Ent. Cloacae P99; test: as above; format: biochemical; conditions: for IC50: maximum concentration 20 μg/ml, read-out: concentration of compound for 50% inhibition of enzyme (converted); for inhibition at 20 µg/mL: at 20 μg/ml, read-out: amount of inhibition at maximum concentration
Procedure: as §1, §2

[8] = system: β-lactamase, P. Mirab C889; test: as above; format: biochemical; conditions: for concentration of compound for 50% inhibition of enzyme: maximum concentration 20 μg/ml
Procedure: as §1, §2

[9] = biological target: T3, β-lactamase, Staph aureus Russel; test: as above; format: biochemical; conditions: at 20 μg/ml, read-out: amount of inhibition at maximum concentration
Procedure: as §1, §2

Escherichia coli 8 = test: Antibacterial activity in vivo, mouse intraperitoneal infection; conditions: Expt R21 and R23
Procedure: (§3) Antibacterial activity in vivo [drawing 117] Experimental model: Mouse intraperitoneal infection Micro-organism: Escherichia coli 8 suspended in 3% AL1 mucin plus 1% carboxymethylcellulose
(§4) Dosing route: Subcutaneous
(§5) Dosing schedule: 1, 1.5, 2, 2.5 hours after infection

[10] = Tolerance of maximum total dose in the mouse infection experiment; format: in vivo; conditions: mice; subcutaneous; maximum total dose 100 mg/kg
Procedure: as §3, §4, §5
Maximum total dose was 100 mg/kg and this was tolerated by the mice.

β-lactamase, Ps aerug A [11] = test: β-Lactamase inhibition, automated chromagenic substrate assay; format: biochemical; conditions: at 50 μg/ml (asterisked)
Procedure: as §1, §2

[12] = biological target: β-lactamase, P. Mirab C889; test: as above; format: biochemical
Procedure: as §1, §2

[13] = E. Coli JT4 β-lactamase, hydroxyamine assay, at 20 μg/ml
[14] = E. Coli JT4 β-lactamase, hydroxyamine assay

T1 sequence (P62593 24-286 limits assumed): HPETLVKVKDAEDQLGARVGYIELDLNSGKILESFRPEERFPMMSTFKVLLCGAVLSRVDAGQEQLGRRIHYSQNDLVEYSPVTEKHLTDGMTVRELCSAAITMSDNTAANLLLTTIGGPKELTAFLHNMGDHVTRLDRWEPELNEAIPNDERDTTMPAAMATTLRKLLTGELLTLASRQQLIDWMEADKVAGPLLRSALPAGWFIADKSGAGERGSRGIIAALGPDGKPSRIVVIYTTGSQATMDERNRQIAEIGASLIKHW
T3 sequence (P00807 25-281): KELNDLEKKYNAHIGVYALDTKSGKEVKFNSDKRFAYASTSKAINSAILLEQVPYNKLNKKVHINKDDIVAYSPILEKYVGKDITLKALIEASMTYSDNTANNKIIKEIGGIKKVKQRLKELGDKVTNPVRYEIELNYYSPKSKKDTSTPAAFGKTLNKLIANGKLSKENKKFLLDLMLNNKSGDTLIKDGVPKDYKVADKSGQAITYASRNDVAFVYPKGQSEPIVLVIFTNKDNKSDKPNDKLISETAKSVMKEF
T2 sequence (P05364 21-381): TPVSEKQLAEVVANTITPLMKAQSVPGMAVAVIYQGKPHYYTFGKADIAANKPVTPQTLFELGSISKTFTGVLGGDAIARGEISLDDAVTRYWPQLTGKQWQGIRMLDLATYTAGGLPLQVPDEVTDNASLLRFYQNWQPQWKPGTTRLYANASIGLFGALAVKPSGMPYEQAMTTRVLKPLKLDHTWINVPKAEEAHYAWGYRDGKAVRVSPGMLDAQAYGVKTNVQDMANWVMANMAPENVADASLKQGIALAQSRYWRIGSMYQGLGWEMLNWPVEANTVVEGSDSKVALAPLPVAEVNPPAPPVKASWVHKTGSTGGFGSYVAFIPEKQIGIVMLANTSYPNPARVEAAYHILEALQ

CC(O)[C@@H]1C(=O)N2C(C(=O)OCc3ccccc3)=C([S+]([O-])c3ccccc3)C[C@H]12 (relative stereo) [Compound 82, Benzyl trans-6-(1-hydroxyethyl)-7-oxo-3-phenylsulphinyl-1-azabicyclo[3.2.0]hept-2-ene-2-carboxylate]
IC50 (β-lactamase, E. Coli JT4 [1]): 31.6 µM | IC50 [2]: 46.2 µM | concentration of compound for 50% inhibition of enzyme [3]: 2 µg/mL | inhibition at 50 µg/mL [4]: 20%

CC[S+]([O-])C1=C(C(=O)OCc2ccccc2)N2C(=O)[C@@H](C(C)(C)O)[C@H]2C1 (relative stereo) [Compound 84, Benzyl 3-ethylsulphinyl-trans-6-(2-hydroxy-2-propyl)-7-oxo-1-azabicyclo[3.2.0]hept-2-ene-2-carboxylate]
concentration of compound for 50% inhibition of enzyme (β-lactamase, Ps aerug A [5]; maximum concentration 20 μg/ml): 12.1 µg/mL | inhibition at 20 µg/mL (β-lactamase, E. Coli JT4 [6]; [13]): 16% | IC50 [7]: 10.3 µM

CC[S+]([O-])C1=C(C(=O)OCc2ccccc2)N2C(=O)[C@@H](C(C)(C)O)[C@H]2C1 (relative stereo) [Compound 86, Benzyl 3-ethylsulphinyl-trans-6-(2-hydroxy-2-propyl)-7-oxo-1-aza-bicyclo[3.2.0]hept-2-ene-2-carboxylate]
IC50 [7]: 6.62 µM

CC[S+]([O-])C1=C(C(=O)OCc2ccccc2)N2C(=O)[C@H](C(C)(C)O)[C@H]2C1 (relative stereo) [Compound 88, Benzyl 3-ethylsulphinyl-cis-6-(2-hydroxy-2-propyl)-7-oxo-1-azabicyclo[3.2.0]hept-2-ene-2-carboxylate]
amount of inhibition at maximum concentration (β-lactamase, Ps aerug A [5]): 23% | amount of inhibition at maximum concentration ([8]; at 20 μg/ml): 13% | IC50 (β-lactamase, E. Coli JT4 [6]; [14]): 21.2 µM | IC50 [7]: 21.7 µM | inhibition at 20 µg/mL [9]: 19%

CC[S+]([O-])C1=C(C(=O)OCC(=O)c2ccc(Br)cc2)N2C(=O)C(CC=CC(=O)OC)C2C1 (single isomer, unassigned) [Compound 73, p-Bromophenacyl 3-ethylsulphinyl-6-(3-methoxycarbonylprop-2-en-1-yl)-7-oxo-1-azabicyclo[3.2.0]hept-2-ene-2-carboxylate]
concentration of compound for 50% inhibition of enzyme [8]: 1.2 µg/mL | inhibition at 20 µg/mL [7]: 31%

CC[S+]([O-])C1=C(C(=O)OCc2ccccc2)N2C(=O)CC2C1 (centres unmarked) [Compound 55, Benzyl 3-ethylsulphinyl-7-oxo-1-azabicyclo[3.2.0]hept-2-ene-2-carboxylate]
concentration of compound for 50% inhibition of enzyme [8]: 4 µg/mL | inhibition at 20 µg/mL (β-lactamase, E. Coli JT4 [6]): 28% | ED50 (Escherichia coli 8; Escherichia coli, 8, sc, 2.5 h, mouse i.p. infection with Escherichia coli 8, subcutaneous dosing 1, 1.5, 2, 2.5 hours after infection, total dose, read-out: CD50 Value mg/kg (total dose)): 5.2 mg/kg | CD50 Value mg/kg (total dose) (Escherichia coli 8; mouse i.p. infection with Escherichia coli 8, subcutaneous dosing 1, 1.5, 2, 2.5 hours after infection): 8.8 mg/kg | tolerance of maximum total dose [10]: tolerated

CC[S+]([O-])C1=C(C(=O)OCc2ccccc2)N2C(=O)CC2C1 (centres unmarked) [Compound 57, Benzyl 3-ethylsulphinyl-7-oxo-1-azabicyclo[3.2.0]hept-2-ene-2-carboxylate]
amount of inhibition at maximum concentration (β-lactamase, Ps aerug A [11]): 47% | concentration of compound for 50% inhibition of enzyme [12]: 3.5 µg/mL | IC50 (β-lactamase, E. Coli JT4 [1]): 28.2 µM | inhibition at 50 µg/mL [2]: 19% | amount of inhibition at maximum concentration ([3]; at 50 μg/ml (asterisked)): 17%

CC(=O)NCC[S+]([O-])C1=C(C(=O)OCc2ccccc2)N2C(=O)CC2C1 (centres unmarked) [Compound 63, Benzyl 3-(2-acetamidoethylsulphinyl)-7-oxo-1-azabicyclo[3.2.0]hept-2-ene-2-carboxylate]
concentration of compound for 50% inhibition of enzyme [8]: 3.3 µg/mL | inhibition at 20 µg/mL (β-lactamase, E. Coli JT4 [6]; [13]): 29% | inhibition at 20 µg/mL [7]: 16%

CC(=O)Nc1ccc([S+]([O-])C2=C(C(=O)OCc3ccccc3)N3C(=O)CC3C2)cc1 (centres unmarked) [Compound 65, Benzyl 3-p-acetamidophenylsulphinyl-7-oxo-1-azabicyclo[3.2.0]hept-2-ene-2-carboxylate]
IC50 (β-lactamase, E. Coli JT4 [1]): 0.825 µM | inhibition at 50 µg/mL [2]: 47% | inhibition at 50 µg/mL [4]: 35%

CC(=O)Nc1ccc([S+]([O-])C2=C(C(=O)OCc3ccccc3)N3C(=O)CC3C2)cc1 (centres unmarked) [Compound 67, Benzyl 3-p-acetamidophenylsulphinyl-7-oxo-1-azabicyclo[3,2,0]hept-2-ene-2-carboxylate]
IC50 (β-lactamase, E. Coli JT4 [1]): 1.84 µM | IC50 [2]: 118 µM

COC(=O)C=CCC1C(=O)N2C1CC(Cl)([S+]([O-])c1ccccc1)C2C(=O)OCc1ccccc1 (stereo not drawn) [Compound 68, Benzyl 3-chloro-6-(3-methoxycarbonylprop-2-ene-1-yl)-7-oxo-3-phenylsulphinyl-1-azabicyclo[3.2.0]heptane-2α-carboxylate]
concentration of compound for 50% inhibition of enzyme [8]: 0.6 µg/mL | IC50 (β-lactamase, E. Coli JT4 [6]; [14]): 15.9 µM | inhibition at 20 µg/mL [7]: 25%

COC(=O)C=CCC1C(=O)N2C(C(=O)OCc3ccccc3)=C([S+]([O-])c3ccccc3)CC12 (centres unmarked) [Compound 69, Benzyl 6-(3-methoxycarbonylprop-2-en-1-yl)-7-oxo-3-phenylsulphnyl-1-azabicyclo[3.2.0]hept-2-ene-2-carboxylate]
amount of inhibition at maximum concentration (β-lactamase, Ps aerug A [5]): 44% | concentration of compound for 50% inhibition of enzyme [8]: 2.4 µg/mL | IC50 (β-lactamase, E. Coli JT4 [6]; [14]): 26.2 µM | inhibition at 20 µg/mL [7]: 23%

COC(=O)C=CCC1C(=O)N2C(C(=O)OCc3ccccc3)=C([S+]([O-])c3ccccc3)CC12 (centres unmarked) [Compound 71, Benzyl 6-(3-methoxycarbonylprop-2-en-1-yl)-7-oxo-3-phenylsulphinyl-1-azabicyclo[3.2.0]hept-2-ene-2-carboxylate]
concentration of compound for 50% inhibition of enzyme [8]: 2.0 µg/mL | IC50 (β-lactamase, E. Coli JT4 [6]; [14]): 18.3 µM

CC[S+]([O-])C1=C(C(=O)OC2OC(=O)c3ccccc32)N2C(=O)C(CC=CC(=O)OC)C2C1 (centres unmarked) [Compound 78, Phthalidyl 3-ethylsulphinyl-6-(3-methoxycarbonylprop-2-en-1-yl)-7-oxo-1-azabicyclo[3.2.0]hept-2-ene-2-carboxylate]
inhibition at 20 µg/mL (β-lactamase, E. Coli JT4 [6]; [13]): 16% | IC50 [7]: 19.2 µM

CC[S+]([O-])C1=C(C(=O)OCc2ccccc2)N2C(=O)C(Cc3ccccc3)C2C1 (centres unmarked) [Compound 80, Benzyl 6-benzyl-3-ethylsulphinyl-7-oxo-1-azabicyclo[3.2.0]hept-2-ene-2-carboxylate]
IC50 (β-lactamase, E. Coli JT4 [1]): 20.8 µM | IC50 [2]: 52 µM | concentration of compound for 50% inhibition of enzyme [3]: 24 µg/mL
